In one data set the target is T1, wild type IDH1 (Homo sapiens, UniProt O75874).
T1 construct: endogenous in cells; host or cells: MiaPaCa2
Kind of data set: wild type IDH1 enzyme activity at varying Mg2+ concentrations (FIG. 19). In kind it is cell-based. Particulars: 1 μM, Mg2+ below 0.4 mM. The text has this: In one embodiment, the cancer treated in accordance with any of the invention's methods contains cancer cells having a lower Magnesium^2+ (Mg^2+) concentration compared to Mg^2+ concentration in serum, such as serum from the subject and/or serum from a control subject lacking cancer.

For data set [1] the following is noted: 500 mg daily in humans; cited from earlier work.
For data set [2], the system named is wild type IDH1 pancreatic cancer (MiaPaCa2 cell line) xenografts. Kind of data set: pancreatic xenograft study (MiaPaCa2). The class given is in vivo, mice. Particulars: oral 150 mg/kg. An excerpt: FIG. 7. […] No toxicity to mice occurred at these oral doses.
No toxicity was observed.

Data set [3] deals with pancreatic cancer cell line (Panc1) cells. Kind of data set: reactive oxygen species (ROS) levels in Panc1 cells. In kind it is cell-based. Conditions: 1 μM, zero mM magnesium ion, 2.5 mM glucose, Panc1, 48 hours. The method, then: ROS levels were measured by measuring 2′,7′-dichlorodihydrofluorescein diacetate (DCFDA) or MitoSOX as previously described (Zarei et al. (2017) Cancer Res; 77(16) 4460-4471).
Importantly, these low magnesium ion and low glucose conditions were consistent with the pancreatic cancer tumor microenvironment (FIG. 6).

Structures are written as SMILES.

T1 sequence (O75874 2-414): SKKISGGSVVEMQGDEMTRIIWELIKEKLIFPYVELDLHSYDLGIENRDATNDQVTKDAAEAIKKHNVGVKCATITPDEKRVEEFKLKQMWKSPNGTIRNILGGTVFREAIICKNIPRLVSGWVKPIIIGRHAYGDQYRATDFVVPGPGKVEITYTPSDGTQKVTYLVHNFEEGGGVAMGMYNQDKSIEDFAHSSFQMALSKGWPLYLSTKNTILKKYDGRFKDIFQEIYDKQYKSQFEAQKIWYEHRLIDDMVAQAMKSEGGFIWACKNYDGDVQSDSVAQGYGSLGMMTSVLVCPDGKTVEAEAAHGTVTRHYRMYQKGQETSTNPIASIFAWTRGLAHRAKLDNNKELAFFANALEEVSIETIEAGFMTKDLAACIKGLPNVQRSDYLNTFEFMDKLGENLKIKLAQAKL

With `N#Cc1ccnc(N2C(=O)CC[C@H]2C(=O)N(c2cncc(F)c2)[C@H](C(=O)NC2CC(F)(F)C2)c2ccccc2Cl)c1` [AG-120, Ivosidenib], the “reduction of wild type IDH1 enzyme activity” value at wild type IDH1 is given as 50%. The plasma concentration in data set [1] was 130 µM. The toxicity to mice entry in data set [2] is on record as “No toxicity”. In data set [3], the “increase in ROS” value was 3 fold.

Values taken from patent US12168005B2, “Methods for treating wild type isocitrate dehydrogenase 1 cancers” (University Hospitals Cleveland Medical Center, priority 2019, dated 2024).
